Measured values as given in US20230201183A1, “METHODS TO […] ENHANCE MULTIPLE […] PROTEOSTASIS […] TO TREAT NEURODEGENERATION AND STORAGE DISEASES” (Northwestern University, priority 2021, published 2023).

Columns and labels:
[1] = test system: SNCA-3X DA neurons and α-syn overexpressing cell lines; test: ER stress induction, UPR markers (mRNA/protein); format: cell-based, human; settings: for XBP1-S / mRNA/protein levels of ER chaperones including GRP78, GRP94, and CANX: 30 nM Tg or 50 ng/ml BFA for 24 hours
Description: Total RNA was isolated from cells in a 24 or 12 well format using an RNeasy Mini Prep kit (QIAGEN). cDNA was synthesized by reverse transcriptase PCR (RT-PCR) using the RevertAid First Strand cDNA synthesis kit (Thermo Fisher Scientific). Quantitative PCR was performed on the Applied Biosystems 7500 Fast system using the cDNA and pre-designed TaqMan-primer probes for the target genes. The target mRNA expression was quantified relative to GAPDH or […] using the delta-delta-Ct method, and represented as a fold change.

[2] = test system: wild-type or isogenic control neurons; test: ER stress induction and insoluble GCase in control neurons; format: cell-based, human; settings: 30 nM Tg for 24 hours
[3] = test system: midbrain neurons from a GD (N370S/84GG) and a PD patient that harbors a GBA1 mutation (N370S/wt); test: GCase maturation and α-syn western blot in GBA1 mutant patient neurons; settings: GD (N370S/84GG) and GBA-PD (N370S/wt) neurons; two weeks
control iPSn = test: N-glycosylated proteins by Con A-biotin western blot; format: cell-based, human; settings: tunicamycin 5 ug/ml, 24 hours
Description: (§1) Protein extraction was done as described in detail (Stojkovska and Mazzulli, 2021). […] Supernatant was discarded and the cell pellets were subjected to homogenization in 1% Triton X-100 buffer (1% Triton X-100, 20 mM HEPES pH 7.4, 150 mM NaCl, 10% glycerol, 1 mM EDTA, 1.5 mM MgCl2, 1 mM phenylmethanesulfonyl fluoride (PMSF), 50 mM NaF, 2 mM Na orthovanadate, and a protease inhibitor cocktail (Roche diagnostics, https://www.roche.com, #11-836-170-001)) by homogenization. […] Protein band intensities was quantified by the ImageStudio software ver 3.1.
(§2) Neurons were treated with or without 5 ug/ml tunicamycin (EMD Millipore/Calbiochem) for 24 hrs. Cells were extracted in 1% Triton X-100 buffer and analyzed by western blot for Hex B, Con-A, or GFPT2 as described in “Sequential protein extraction and western blotting analysis”. For mRNA measurement, total RNA was extracted and isolated as described in “Measurement of mRNA.” cDNA was synthesized and subjected to real-time PCR using Taqman-primer probe sets for GFPT2, XBP1U, and GRP78.

A53T iPSn [4] = test: as above; format: cell-based, human
Description: as §1
(§3) . The transfection was performed with X-tremeGENE transfection reagent (Roche #6366236001) as described previously (Cuddy et al., 2019). Lentiviral particles were collected from the media and concentrated using Lenti-X concentrator (Clontech, #631232). […] The viral particle number and the number of plated cells was used to calculate the multiplicity of infection (MOI). For GFPT2 Overexpression the A53T neurons were infected at MOI-3 and harvested 2 weeks post-infection. A53T neurons were infected with XBP1^s lentivirus at MOI-1 and harvested 16 days post-infection. […]
(§4) Neurons were treated with or without 5 ug/ml tunicamycin (EMD Millipore/Calbiochem) for 24 hrs. Cells were extracted in 1% Triton X-100 buffer and analyzed by western blot for Hex B, Con-A, or GFPT2 as described in “Sequential protein extraction and western blotting analysis”. […]

isogenic control iPSn = test: Hex B glycosylation by western blot; format: cell-based, human; settings: control cells; tunicamycin
Description: as §1, §2

A53T iPSn [5] = test: Hex B glycosylation and maturation by western blot; format: cell-based, human
Description: as §1, §3, §4

wt iPSn = test: Quantitative RT-PCR mRNA analysis; format: cell-based, human; settings: tunicamycin 5 ug/ml, 24 h
Description: (§5) Measurement of RNA. Total RNA was extracted and isolated using the PureLink RNA Mini Kit (Thermofisher Scientific). cDNA was synthesized using the RevertAid First Strand cDNA Synthesis Kit (Thermofisher Scientific). Real-time PCR was performed on an Applied Biosystems 7500 Fast system using pre-designed Taqman-primer probe sets: DPAGT1 (Hs00609752_m1), GFPT2 (Hs01049570_m1), XBP1U (Hs02856596_m1), XBP1s (Hs03929085_g1), GRP78 (Hs99999174_m1), HSP90B1/GRP94 (Hs00427665_g1), GBA1 (Hs00164683_m1), HexB (Hs01077594_m1) and ACTB (Hs01060665_g1). The quantifications represent the fold change of target mRNA expression normalized to beta-actin (ACTB) levels by delta-Ct method. The values are mean and s.e.m of biological replicates (n=3-6) with two technical replicates for each.
as §2

A53T iPSn [6] = test: Quantitative RT-PCR mRNA analysis; format: cell-based, human
Description: as §5
. The transfection was performed with X-tremeGENE transfection reagent (Roche #6366236001) as described previously (Cuddy et al., 2019). Lentiviral particles were collected from the media and concentrated using Lenti-X concentrator (Clontech, #631232). […]
as §4

SNCA-3x iPSn = test: GFPT2 western blot; format: cell-based, human; settings: tunicamycin
Description: as §1, §2

isogenic controls = test: GFPT2 western blot; format: cell-based, human; settings: isogenic controls of SNCA-3x; tunicamycin
Description: as §1, §2

A53T iPSn [7] = test: GCase solubility and maturation (sequential extraction, Endo H, western blot); format: cell-based, human; settings: 10 mM GlcNAc for 7 days
Description: as §1
Analysis of post-ER GCase: This assay was performed as described in detail (Cuddy and Mazzulli, 2021). Briefly, 40 ug of lysate were subjected to Endoglycosidase H (Endo H) digestion as per the manufacturer's protocol (New England Biolabs, https://www.neb.com) at 37° C. for 2 h. Duplicate samples without enzyme were incubated under the same conditions serving as control (undigested samples). […] Endo H resistant bands migrating 62-64 kDa were measured as post-ER forms and maturation was calculated by quantifying the post-ER/ER ratios. Quantification was performed on Image Studio software (Licor). […] Standard error of the mean values were graphed, analyzed by student's t-test, and p values <0.05 were considered significant. […]

lysosomal GCase = test: Live-cell lysosomal GCase activity assay; format: cell-based, human; settings: live A53T patient neurons; 10 mM GlcNAc
Description: Live-cell lysosomal GCase activity assay. The procedure and analysis method for the activity assay has been previously described in detail (Cuddy and Mazzulli, 2021). Briefly, one day prior to the assay, cells were treated with 1 mg/ml cascade dextran blue (Life Technologies) in a 96-well plate for 24 hours. This was followed by treatment of cells with DMSO or 200 nM bafilomycin A1 for 1 hour at 37° C. The cells were subjected to 1 hour pulse chase with an artificial fluorescent GCase substrate, 100 ug/ml 5-(pentafluoro-benzoylamino) fluorescein di-ß-D-glucopyranoside (PFB-FDGluc; Life Technologies), at 37° C. The fluorescence signal was measured every 30 minutes for the span of 3-4 hours on a plate reader (Ex=485 nm, Em=530 nm, for the GCase substrates; Ex=400 nm, Em=430 nm for cascade dextran blue). For the analysis, the GCase fluorescence signal was normalized to either lysosomal mass by using cascade dextran blue signal or total cell volume by quantifying CellTag 700 staining signal.
The transfection was performed with X-tremeGENE transfection reagent (Roche #6366236001) as described previously (Cuddy et al., 2019). Lentiviral particles were collected from the media and concentrated using Lenti-X concentrator (Clontech, #631232). […] The viral particle number and the number of plated cells was used to calculate the multiplicity of infection (MOI). […]

A53T iPSn [8] = test: α-syn sequential extraction/western blot; format: cell-based, human; settings: 10 mM GlcNAc for 7 days
Description: as §1
The transfection was performed with X-tremeGENE transfection reagent (Roche #6366236001) as described previously (Cuddy et al., 2019). Lentiviral particles were collected from the media and concentrated using Lenti-X concentrator (Clontech, #631232). […] The viral particle number and the number of plated cells was used to calculate the multiplicity of infection (MOI). For GFPT2 Overexpression the A53T neurons were infected at MOI-3 and harvested 2 weeks post-infection. A53T neurons were infected with XBP1^s lentivirus at MOI-1 and harvested 16 days post-infection. Neurons infected with lentivirus expressing GFP was used as control.
iPSC neurons were supplemented with or without GlcNAc (A3286-sigma) at 10 mM for 7 days in PBS.

A53T iPSn [9] = test: Neurofilament toxicity assay (neuron viability); format: cell-based, human
Description: iPSC-neurons 96 well format were fixed in 4% paraformaldehyde in PBS for 20 minutes, followed by incubation in 0.3% Triton X-100 (PBS) for 20 min. The cells were then blocked with Odyssey blocking buffer (Li-Cor) for 1 h. Anti-neurofilament antibody (1:1000, mouse IgG 2H3, Developmental Studies Hybridoma Bank, University of Iowa, Iowa City, Iowa) was incubated overnight in blocking buffer at 4° C., followed by washing in PBS with 0.1% Tween for 20 min. IRdye 800-conjugated anti-mouse IgG antibodies (1:1000 dilution, Li-Cor) was incubated in blocking buffer for 1 hour and CellTag™ 700 (Li-Cor) was also added for normalization. The Cells were washed four times in PBS-0.1% Tween and scanned on an Odyssey infrared imaging system (Li-Cor). Neurofilament intensity was determined by Image Studio software (version 2.1 Li-Cor) and normalized to […].
as §3, with “The” for “. The”, “post-infection.” for “post-infection. A53T neurons were infected with XBP1^s lentivirus at MOI-1 and harvested 16 days post-infection.”

C/C=C(/C)C(=O)O[C@H]1C(C)=C2[C@H]([C@@H]1OC(=O)CCCCCCC)[C@@](C)(OC(C)=O)C[C@H](OC(=O)CCC)[C@@]1(O)[C@H]2OC(=O)[C@@]1(C)O [Tg]
XBP1-S [1]: dramatic upregulation of XBP1-S
mRNA/protein levels of ER chaperones including GRP78, GRP94, and CANX [1]: significantly increased mRNA/protein levels of ER chaperones
phospho-eIF2α ([1]; isogenic controls and SNCA-3X DA neurons, 30 nM Tg): increased phospho-eIF2α to a similar degree
GRP78 expression (ER stress) [2]: increased GRP78 expression

C[C@H]1CCC/C=C/[C@@H]2C[C@H](O)C[C@H]2[C@H](O)/C=C/C(=O)O1 [BFA]
XBP1-S [1]: dramatic upregulation of XBP1-S
mRNA/protein levels of ER chaperones including GRP78, GRP94, and CANX [1]: significantly increased mRNA/protein levels of ER chaperones

C#Cc1cccc(-c2cc(=O)n(C)c3ccc([C@](O)(c4ccc(Cl)cc4)c4cncn4C)cc23)c1 [FTI, 6-[(R)-(4-chlorophenyl)hydroxy(1-methyl-1H-imidazol-5-yl)methyl]-4-(3-ethynylphenyl)-1-methyl-2(1H)-Quinolinone]
GCase maturation [3]: minimal effects
α-syn levels [3]: minimal effects

tunicamycin
reduction of N-glycans (control iPSn): ~50%
N-glycosylated proteins (Con A) (A53T iPSn [4]): no effect
Hex B glycosylation (isogenic control iPSn): blocked Hex B glycosylation
Hex B response to tunicamycin (A53T iPSn [5]; A53T iPSn compared to controls): reduced response
upregulation of GFPT2 mRNA (wt iPSn): ~2 fold
UPR-responsive transcripts XBP1 and GRP78 (A53T iPSn [6]; A53T iPSn versus Corr, tunicamycin): less responsive
upregulation of GFPT2 mRNA (A53T iPSn [6]; A53T iPSn, tunicamycin 5 ug/ml, 24 h): ~1.2 fold
GFPT2 protein (SNCA-3x iPSn): no effect
elevation of GFPT2 protein (isogenic controls): 60%

CC(=O)NC1C(O)[C@H](O)C(CO)O[C@H]1O (stereo partly drawn) [GlcNAc, β-D-(acetylamino)-2-deoxy-glucopyranose]
N-glycosylated proteins (Con A) (A53T iPSn [4]): completely restored the levels of N-glycosylation to control levels
glycosylated and mature forms of Hex B (A53T iPSn [5]; 10 mM GlcNAc for 7 days): enhanced the glycosylated and mature forms of Hex B
increase in the levels of mature, soluble GCase (A53T iPSn [7]): 2 fold
increase of GCase activity levels (lysosomal GCase): ~2 fold
reduction in pathological α-syn (A53T iPSn [8]): ~75%
neuron viability (neurofilament / neurite content) (A53T iPSn [9]): improved neuron viability
